Test systems include OVCAR-3 ovarian; M14 melanoma; SW-620 colon; NCI-H23 lung; RPMI-8226 leukemia; HL-60(TB) leukemia; SK-MEL-28 melanoma; NCI-H522 lung; NCI/ADR-RES ovarian; K-562 leukemia.
Experiment in all cases: NCI anticancer screen, dose series, 48 h

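In this assay, cells in 96-well plates receive the compound at five concentrations for 48 hours. Endpoints are linearly interpolated between the surrounding concentrations. GI50 = concentration required for 50% inhibition of growth. TGI: concentration producing complete growth inhibition.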

As to `COC(=O)N1CC(=O)C(C(=O)NC23CC4CC(CC(C4)C2)C3)C1` (stereo unspecified), the TGI with OVCAR-3 ovarian, with M14 melanoma, in the test with SW-620 colon, with NCI-H23 lung, with RPMI-8226 leukemia and in the test with HL-60(TB) leukemia was > 100 µM throughout. Besides, the TGI with SK-MEL-28 melanoma, in the test with NCI-H522 lung, in the test with NCI/ADR-RES ovarian and in the test on K-562 leukemia was > 100 µM each time.
With `COc1ccc(/C=C2/CSCC3=C2NC(=S)NC3c2ccc(OC)c(OC)c2OC)c(OC)c1OC` (stereo unspecified), the TGI with OVCAR-3 ovarian is > 100 µM; in the test on M14 melanoma, 32.6 µM; in the test with SW-620 colon, 91.6 µM; in the test on NCI-H23 lung it was 43 µM; in the test on RPMI-8226 leukemia it was > 100 µM; in the test with HL-60(TB) leukemia, > 100 µM. For the same compound, the TGI in the test with SK-MEL-28 melanoma is 81.9 µM; in the test on NCI-H522 lung, 97.5 µM; with NCI/ADR-RES ovarian, 32.2 µM; in the test with K-562 leukemia, > 100 µM.
As for `CC(CC(N)C(=O)O)C(=O)O` (stereo unspecified), the TGI in the test on OVCAR-3 ovarian, in the test with M14 melanoma, with SW-620 colon, in the test on NCI-H23 lung, in the test on HL-60(TB) leukemia and in the test on SK-MEL-28 melanoma was > 100 µM in each case. Moreover, the TGI in the test on NCI-H522 lung, with NCI/ADR-RES ovarian and in the test on K-562 leukemia was > 100 µM throughout.
`COc1cccc(C23CCCC(C2)NCC3Br)c1OC` (stereo unspecified): the TGI in the test on OVCAR-3 ovarian was > 100 µM; with M14 melanoma, > 100 µM; with SW-620 colon, > 100 µM; in the test on NCI-H23 lung, > 100 µM; in the test with RPMI-8226 leukemia, 45.7 µM; with SK-MEL-28 melanoma, > 100 µM. The TGI was 53.3 µM with NCI-H522 lung, > 100 µM in the test with NCI/ADR-RES ovarian and > 100 µM with K-562 leukemia.
On to `CCc1c2c(cc3c1CC1(C3)Cc3cc4c(c(C(=O)OC)c3C1)CCCC4)CCCC2` (stereo unspecified), for which the TGI in the test on OVCAR-3 ovarian, in the test with M14 melanoma, in the test on NCI-H23 lung, with RPMI-8226 leukemia, in the test with HL-60(TB) leukemia and with NCI-H522 lung was > 100 µM throughout. The TGI in the test on NCI/ADR-RES ovarian and with K-562 leukemia was > 100 µM each time.
`CCOC(=O)c1cc(-n2nnc3ccccc32)cn1C`: the TGI in the test on OVCAR-3 ovarian, in the test on M14 melanoma, in the test with NCI-H23 lung, in the test on RPMI-8226 leukemia, in the test with HL-60(TB) leukemia and in the test on SK-MEL-28 melanoma was > 10 µM in each case. The TGI in the test with NCI-H522 lung, in the test with NCI/ADR-RES ovarian and in the test on K-562 leukemia was > 10 µM throughout.
On to `CC1(c2sccc2Cl)CC(c2sccc2Cl)=C(C#N)C(=C(C#N)C#N)N1` (stereo unspecified), for which the TGI in the test with OVCAR-3 ovarian was 29.8 µM; in the test on M14 melanoma, 42.7 µM; in the test on SW-620 colon, 39 µM; in the test with NCI-H23 lung, 35.9 µM; in the test with RPMI-8226 leukemia, 88 µM; in the test on HL-60(TB) leukemia it was > 100 µM. The TGI with SK-MEL-28 melanoma came to 34.8 µM; in the test on NCI-H522 lung, 35.8 µM; in the test on NCI/ADR-RES ovarian it was 57.8 µM.
On to `CN(CC(=O)O)c1ncc2c(n1)C=CCC2`, for which the TGI in the test with OVCAR-3 ovarian, with M14 melanoma, in the test on SW-620 colon, with NCI-H23 lung, in the test on RPMI-8226 leukemia and with HL-60(TB) leukemia was > 100 µM each time. For the same compound, the TGI with SK-MEL-28 melanoma, with NCI-H522 lung, in the test on NCI/ADR-RES ovarian and with K-562 leukemia was > 100 µM in each case.
In the case of `N#CC(N=Nc1ccccc1C(=O)O)C(N)=O` (stereo unspecified), the TGI with OVCAR-3 ovarian, in the test with M14 melanoma, with SW-620 colon, with NCI-H23 lung, with RPMI-8226 leukemia and in the test with HL-60(TB) leukemia was > 100 µM in each case. In addition, the TGI in the test on SK-MEL-28 melanoma, in the test with NCI-H522 lung, in the test with NCI/ADR-RES ovarian and in the test with K-562 leukemia was > 100 µM throughout.
In the case of `CCOC(=O)/C=C(\C(=O)OCC)n1ccc(=O)n(Cc2cnnn2CCCCOC(C)=O)c1=O`, the TGI in the test on OVCAR-3 ovarian was 21.5 µM; in the test on M14 melanoma, 38.8 µM; with SW-620 colon, > 41.1 µM; in the test with NCI-H23 lung, 18.5 µM; with RPMI-8226 leukemia it was > 22.5 µM; in the test with SK-MEL-28 melanoma it was 21.4 µM. Further, the TGI is 3.05 µM with NCI-H522 lung, 40.1 µM with NCI/ADR-RES ovarian and 10.2 µM in the test on K-562 leukemia. Besides, the GI50 with K-562 leukemia was 2.1 µM.
In the case of `Oc1ccc([C@H]2c3c(O)cc(O)cc3C3c4c(cc(O)cc4[C@@H]2[C@H]2c4cc(O)cc5c4C(c4cc(O)cc(O)c4[C@@H]2c2ccc(O)cc2)[C@@H](c2ccc(O)cc2)O5)O[C@@H]3c2ccc(O)cc2)cc1` (stereo partly specified), the TGI was > 100 µM with OVCAR-3 ovarian; > 100 µM in the test on M14 melanoma; > 100 µM in the test with NCI-H23 lung; > 100 µM in the test with RPMI-8226 leukemia; > 100 µM in the test on HL-60(TB) leukemia; 0.972 µM in the test on SK-MEL-28 melanoma. For the same compound, the TGI in the test on NCI-H522 lung, in the test with NCI/ADR-RES ovarian and with K-562 leukemia was > 100 µM each time.
Take `c1cc(-c2ccc(-c3ccc(-c4ccc(-c5ccncc5)o4)cc3)o2)ccn1`: the TGI is 63.8 µM with OVCAR-3 ovarian; 32.2 µM with M14 melanoma; > 100 µM with SW-620 colon; 39.1 µM with NCI-H23 lung; 43.5 µM with HL-60(TB) leukemia; 44.6 µM in the test on SK-MEL-28 melanoma. In addition, the TGI with NCI-H522 lung was 31.7 µM; with NCI/ADR-RES ovarian, > 100 µM; in the test on K-562 leukemia, 39 µM.
In the case of `CCCNC(=S)N/N=C(\C)c1ccc(S(=O)(=O)N(C)c2ccccc2)cc1`, the TGI in the test on OVCAR-3 ovarian is > 100 µM; in the test on M14 melanoma it was > 87.4 µM; in the test on SW-620 colon, > 100 µM; with NCI-H23 lung it was > 100 µM; in the test with RPMI-8226 leukemia, > 31.6 µM; with HL-60(TB) leukemia, > 100 µM. The TGI with SK-MEL-28 melanoma, in the test with NCI-H522 lung, in the test on NCI/ADR-RES ovarian and in the test on K-562 leukemia was > 100 µM throughout.
With `COc1cc(C2C3=C(COC3=O)Oc3cc4c(cc32)OCO4)ccc1O` (stereo unspecified), the TGI is 0.471 µM with OVCAR-3 ovarian; > 100 µM with M14 melanoma; > 100 µM in the test with SW-620 colon; > 100 µM in the test on NCI-H23 lung; > 63.2 µM in the test with RPMI-8226 leukemia; > 100 µM in the test with SK-MEL-28 melanoma. The TGI in the test on NCI-H522 lung is 1.31 µM; with NCI/ADR-RES ovarian it was > 100 µM; with K-562 leukemia, > 100 µM.

The values above are taken from PubChem BioAssay (NCI).
